Measured values from PMC7221793, “Metabolism and Pharmacokinetics of SP-8356, a Novel (1S)-(−)-Verbenone Derivative, in Rats and Dogs and Its Implications in Humans” (Molecules, 2020).

Legend:
[1] = Metabolic stability in dog liver S9 fraction; assay type: in vitro ADME
Method: The metabolic stability of SP-8356 was investigated using rat, dog and human liver S9 fractions fortified with cofactors for major drug metabolism. The final reaction mixture contained 1 mg/mL rat, dog or human liver S9 fraction, 1 mM cofactors (NADPH, UDPGA, PAPS, SAM and GSH), 2 mM MgCl2, 25 µg/mL alamethicin and 1 µM SP-8356 in final volume of 200 µL. The metabolic reactions were initiated by adding 10 mM cofactor solution to reaction mixtures preincubated for 5 min at 37 °C. The reactions were terminated at (0, 5, 15, 30 and 60) min by the addition of 200 µL ice-cold acetonitrile containing HSDH (1 µg/mL). The subsequent sample preparation and analytical methods were the same as those described in Section 4.5.
The degradation t1/2 of SP-8356 was calculated using the following Equation:(1) t1/2=0.693/k, where, k was the first-order rate constant calculated by one phase decay nonlinear regression using GraphPad Prism™ 7 (GraphPad Software, La Jolla, CA, USA). CLint was calculated using the following Equation:(2) CLint=k/fu,S9· mL incubation/mg liver S9· mg S9/g liver·g liver/kg body wt.
The scaling factors were (136, 120.7 and 120.7) mg S9 protein/g liver and (40, 32 and 26) g liver/kg body weight for rats, dogs and humans, respectively. For simplicity, the fraction unbound in S9 incubation (fu, S9) was assumed to be one. CLH was predicted using the hepatic well-stirred model, as follows:(3) CLH=QH·fu·CLint/QH+fu·CLint, where, QH was the hepatic blood flow of (55, 30 and 20) mL/min/kg for rats, dogs and humans, respectively. The fraction unbound (fu) was assumed to be one. EH was calculated using the following Equation:(4) EH=CLH/QH.

[2] = In vivo metabolite identification, pooled dog plasma (Q-TOF LC-MS/MS); settings: i.v. SP-8356 50 mg/kg
Method: Plasma samples from the i.v. administrations described in Section 4.2 and Section 4.3 were used in this study. Plasma samples pooled at each time point were subjected to sample preparation as described in Section 4.2. The prepared samples were analyzed by Agilent 6530 Q-TOF LC-MS/MS system equipped with dual AJS ESI ion source and Agilent 1200 series HPLC system as described below.
Chromatographic separation was achieved on an Agilent Eclipse C18 column (2.1 mm × 100 mm, 3.5 µm) by a gradient elution with a mobile phase consisting of 0.1 vol.% formic acid in water (A) and 0.1 vol.% formic acid in acetonitrile (B) at 50 °C: starting with 5 vol.% B for 2 min, ramping to 95 vol.% B over 1 min, maintaining for 3 min. The mobile phase flow rate was kept at 0.45 mL/min throughout the run. The sample injection volume was 5 µL. Ion source parameters were set as follows: capillary voltage, 3500 V; drying gas, 12 L/min and 300 °C; nebulizer gas, 30 psi; sheath gas, 12 L/min and 300 °C. Mass spectra were acquired in negative ion auto MS/MS mode (F, 135 V; CE, 25 eV) with full scan range of m/z (100–1000) and mass scan rate of 8 spectra/s. Metabolites were identified using Agilent MassHunter Metabolite ID software (version B.04.00) (Santa Clara, CA, USA). Chromatograms and mass spectra of the parent and identified metabolites were extracted using Agilent MassHunter Qualitative Analysis software (version B.05.00) (Santa Clara, CA, USA).

[3] = Pharmacokinetic studies in dogs (single i.v. and p.o. dose); assay type: in vivo; settings: male, Beagle, dog, plasma, iv, 50 mg/kg
Method: Separation was performed on a Phenomenex Kinetex C18 column (2.1 mm × 50 mm, 2.6 µm) with 0.1 vol.% formic acid in water (A) and 0.1 vol.% formic acid in acetonitrile (B) as the mobile phase. The samples were analyzed in a linear gradient elution at a flow rate of 0.45 mL/min at 40 °C: starting with 5 vol.% B for 2 min, ramping to 95 vol.% B in 1 min, maintaining for 3 min and then returning to the initial condition. The injection volume was 5 µL. Ion source parameters were optimized as follows: capillary voltage, 3500 V; drying gas, 12 L/min and 345 °C; nebulizer gas, 35 psi; sheath gas, 11 L/min and 400 °C. Mass spectra were acquired in negative multiple reaction monitoring (MRM) mode at m/z (299 > 283) (F, 100 V; CE, 25 eV) and (253 > 143) (F, 100 V; CE, 30 eV) for SP-8356 and HSDH, respectively. The data were analyzed using Agilent MassHunter Quantitative Analysis software (version B.05.00). The retention times of SP-8356 and HSDH were (4.10 and 4.17) min, respectively. The linear calibration range of SP-8356 was (31.25–4000) ng/mL (r^2 > 0.99). The precision and accuracy of the assay were evaluated using quality control samples prepared in triplicate at (30, 300 and 3000) ng/mL as described in previous report. Both the accuracy and precision of this analytical method were within the acceptable ranges. Pharmacokinetic parameters were calculated by noncompartmental analysis using PKSolver.
Animal studies were conducted at KNOTUS Co., Ltd. (IACUC Approval No.: KNOTUS IACUC 18-KE-363; Approval date: 24 October 2018). SP-8356 dissolved in DMSO/ethanol/Solutol HS 15/deionized water (5/3/40/52 vol.%) was dosed i.v. or p.o. at 50 mg/kg (n = 6/dose group) to male Beagle dogs (11 months old; (11.6–12.4) kg; OrientBio Inc., Gyeonggi, Republic of Korea). Blood samples were collected at selected time points for 24 h post-dosing through jugular vein cannula into EDTA-treated tubes containing AA (final concentration: 0.4 w/v%). The blood samples were then centrifuged at 3000 rpm at 4 °C for 20 min. The separated plasma samples were kept frozen at −80 °C, until analysis. Sample and data analysis methods were the same as those described in Section 4.2.

[4] = Pharmacokinetic studies in rats (single i.v. and p.o. dose); assay type: in vivo; settings: plasma

- half-life at 1 µM ([1]; Beagle, dog, liver S9 fraction, dog liver S9, −Cofactors, 1 μM): < 30 min
- CLint scaled at 1 µM ([1]; Beagle, liver S9 fraction, dog liver S9, +Cofactors): 2430 mL/min/kg
- t1/2 ([1]; dog liver S9, −Cofactors, 1 μM): 20.7 min
- CLH ([1]; dog, +Cofactors, predicted by well-stirred model): 29.6 mL/min/kg
- AUClast (%) ([2]; % versus total AUClast of parent and all detected metabolites): 17.66%
- AUClast (AR∙h) × 10^2 ([2]; AR = peak area ratio versus internal standard): 698.5 (AR∙h) × 10^2
- Vd ([3]; read-out: Vss): 1.3 ± 0.3 L/kg
- Vd ([3]; read-out: Vz): 1.8 ± 0.3 L/kg
- AUC(0-inf) [3]: 12400 ng·h/mL
- AUC(0-t) [3]: 12400 ng·h/mL
- clearance [3]: 66.7 mL/min/kg
- Vd ([4]; male, SD (rat), Beagle (dog), iv, range over rats and dogs, read-out: mean volumes of distribution during terminal phase (Vz) and at steady state (Vss)): 1.3 to 1.9 L/kg
- AUC(0-inf) ([4]; male, SD, iv, rat, 20 mg/kg): 1030 ± 314 ng·h/mL
- AUC(0-t) ([4]; male, SD, iv, rat, 20 mg/kg): 981 ± 314 ng·h/mL
- clearance ([4]; male, SD, iv, rat, 20 mg/kg): 350 mL/min/kg
- half-life ([4]; male, SD, rat, iv, 20 mg/kg): < 6 min
- Vd ([4]; male, SD, rat, iv, 20 mg/kg, read-out: Vss): 1.6 ± 0.5 L/kg
- Vd ([4]; male, SD, rat, iv, 20 mg/kg, read-out: Vz): 1.9 ± 0.6 L/kg
- t1/2 ([4]; rat, 20 mg/kg): 4.2 ± 1.2 min
Compound: COc1cc(/C=C/C2=CC(=O)[C@H]3C[C@@H]2C3(C)C)cc(O)c1O [SP-8356, (1S,5R)-4-((E)-3,4-dihydroxy-5-methoxystryryl)-6,6-dimethylbicylco[3.1.1]hept-3-en-2-one]
